Target: Prothrombin (Homo sapiens) (UniProt P00734)
Test: Relative prothrombin time was determined as the activity of the test ODN (oligodeoxynucleotide) relative to that of GS-522

Row | Structure (SMILES) | Relative PT
1 | Cc1cn([C@H]2C[C@H](OCOC[C@H]3O[C@@H](n4cnc5c(=O)nc(N)[nH]c54)C[C@@H]3OP(=O)(O)OC[C@H]3O[C@@H](n4cnc5c(=O)[nH]c(=N)[nH]c54)C[C@@H]3OP(=O)(O)OC[C@H]3O[C@@H](n4cc(C)c(=O)[nH]c4=O)C[C@@H]3OCOC[C@H]3O[C@@H](n4cc(C)c(=O)[nH]c4=O)C[C@@H]3OP(=O)(O)OC[C@H]3O[C@@H](n4cnc5c(=O)[nH]c(=N)[nH]c54)C[C@@H]3OP(=O)(O)OC[C@H]3O[C@@H](n4cnc5c(=O)nc(N)[nH]c54)C[C@@H]3O)[C@@H](COP(=O)(O)O[C@H]3C[C@H](n4cnc5c(=O)nc(N)[nH]c54)O[C@@H]3COCO[C@H]3C[C@H](n4cc(C)c(=O)[nH]c4=O)O[C@@H]3COP(=O)(O)O[C@H]3C[C@H](n4cnc5c(=O)[nH]c(=N)[nH]c54)O[C@@H]3COP(=O)(O)O[C@H]3C[C@H](n4cnc5c(=O)nc(N)[nH]c54)O[C@@H]3COP(=O)(O)O[C@H]3C[C@H](n4cc(C)c(=O)[nH]c4=O)O[C@@H]3COCO[C@H]3C[C@H](n4cc(C)c(=O)[nH]c4=O)O[C@@H]3COP(=O)(O)O[C@H]3C[C@H](n4cnc5c(=O)[nH]c(=N)[nH]c54)O[C@@H]3COP(=O)(O)O[C@H]3C[C@H](n4cnc5c(=O)nc(N)[nH]c54)O[C@@H]3COP(=O)(O)O)O2)c(=O)[nH]c1=O | 0.5
2 | Cc1cn([C@H]2C[C@H](OP(=O)(O)OC[C@H]3O[C@@H](n4cnc5c(=O)nc(N)[nH]c54)C[C@@H]3OP(=O)(O)OC[C@H]3O[C@@H](n4cnc5c(=O)[nH]c(=N)[nH]c54)C[C@@H]3OP(=O)(O)OC[C@H]3O[C@@H](n4cc(C)c(=O)[nH]c4=O)C[C@@H]3OP(=O)(O)OC[C@H]3O[C@@H](n4cnc5c(=O)[nH]c(=N)[nH]c54)C[C@@H]3OP(=O)(O)OC[C@H]3O[C@@H](n4cc(C)c(=O)[nH]c4=O)C[C@@H]3OP(=O)(O)OC[C@H]3O[C@@H](n4cnc5c(=O)nc(N)[nH]c54)C[C@@H]3OCOC[C@H]3O[C@@H](n4cnc5c(=O)[nH]c(=N)[nH]c54)C[C@@H]3OP(=O)(O)OC[C@H]3O[C@@H](n4cc(C)c(=O)[nH]c4=O)C[C@@H]3OP(=O)(O)OC[C@H]3O[C@@H](n4cc(C)c(=O)[nH]c4=O)C[C@@H]3OP(=O)(O)OC[C@H]3O[C@@H](n4cnc5c(=O)[nH]c(=N)[nH]c54)C[C@@H]3OCOC[C@H]3O[C@@H](n4cnc5c(=O)nc(N)[nH]c54)C[C@@H]3O)[C@@H](COP(=O)(O)O[C@H]3C[C@H](n4cc(C)c(=O)[nH]c4=O)O[C@@H]3COP(=O)(O)O[C@H]3C[C@H](n4cnc5c(=O)nc(N)[nH]c54)O[C@@H]3COP(=O)(O)O[C@H]3C[C@H](n4cnc5c(=O)[nH]c(=N)[nH]c54)O[C@@H]3COP(=O)(O)O)O2)c(=O)[nH]c1=O | 0.8
3 | Cc1cn([C@H]2C[C@H](OP(=O)(O)OC[C@H]3O[C@@H](n4cc(C)c(=O)[nH]c4=O)C[C@@H]3OP(=O)(O)OC[C@H]3O[C@@H](n4cnc5c(=O)[nH]c(=N)[nH]c54)C[C@@H]3OP(=O)(O)OC[C@H]3O[C@@H](n4cnc5c(=O)nc(N)[nH]c54)C[C@@H]3O)[C@@H](COCO[C@H]3C[C@H](n4cnc5c(=O)[nH]c(=N)[nH]c54)O[C@@H]3COP(=O)(O)O[C@H]3C[C@H](n4cnc5c(=O)nc(N)[nH]c54)O[C@@H]3COP(=O)(O)O[C@H]3C[C@H](n4cc(C)c(=O)[nH]c4=O)O[C@@H]3COP(=O)(O)O[C@H]3C[C@H](n4cnc5c(=O)nc(N)[nH]c54)O[C@@H]3COP(=O)(O)O[C@H]3C[C@H](n4cc(C)c(=O)[nH]c4=O)O[C@@H]3COP(=O)(O)O[C@H]3C[C@H](n4cnc5c(=O)[nH]c(=N)[nH]c54)O[C@@H]3COP(=O)(O)O[C@H]3C[C@H](n4cnc5c(=O)nc(N)[nH]c54)O[C@@H]3COP(=O)(O)O[C@H]3C[C@H](n4cc(C)c(=O)[nH]c4=O)O[C@@H]3COP(=O)(O)O[C@H]3C[C@H](n4cc(C)c(=O)[nH]c4=O)O[C@@H]3COP(=O)(O)O[C@H]3C[C@H](n4cnc5c(=O)[nH]c(=N)[nH]c54)O[C@@H]3COP(=O)(O)O[C@H]3C[C@H](n4cnc5c(=O)nc(N)[nH]c54)O[C@@H]3COP(=O)(O)O)O2)c(=O)[nH]c1=O | 0.8

Next, values leading:

Row | Relative PT | Structure (SMILES)
4 | 1.1 | Cc1cn([C@H]2C[C@H](OCOC[C@H]3O[C@@H](n4cnc5c(=O)nc(N)[nH]c54)C[C@@H]3OP(=O)(O)OC[C@H]3O[C@@H](n4cnc5c(=O)[nH]c(=N)[nH]c54)C[C@@H]3OP(=O)(O)OC[C@H]3O[C@@H](n4cc(C)c(=O)[nH]c4=O)C[C@@H]3OP(=O)(O)OC[C@H]3O[C@@H](n4cc(C)c(=O)[nH]c4=O)C[C@@H]3OP(=O)(O)OC[C@H]3O[C@@H](n4cnc5c(=O)[nH]c(=N)[nH]c54)C[C@@H]3OP(=O)(O)OC[C@H]3O[C@@H](n4cnc5c(=O)nc(N)[nH]c54)C[C@@H]3O)[C@@H](COP(=O)(O)O[C@H]3C[C@H](n4cnc5c(=O)[nH]c(=N)[nH]c54)O[C@@H]3COP(=O)(O)O[C@H]3C[C@H](n4cc(C)c(=O)[nH]c4=O)O[C@@H]3COP(=O)(O)O[C@H]3C[C@H](n4cnc5c(=O)[nH]c(=N)[nH]c54)O[C@@H]3COP(=O)(O)O[C@H]3C[C@H](n4cnc5c(=O)nc(N)[nH]c54)O[C@@H]3COP(=O)(O)O[C@H]3C[C@H](n4cc(C)c(=O)[nH]c4=O)O[C@@H]3COP(=O)(O)O[C@H]3C[C@H](n4cc(C)c(=O)[nH]c4=O)O[C@@H]3COP(=O)(O)O[C@H]3C[C@H](n4cnc5c(=O)nc(N)[nH]c54)O[C@@H]3COP(=O)(O)O[C@H]3C[C@H](n4cnc5c(=O)nc(N)[nH]c54)O[C@@H]3COP(=O)(O)O)O2)c(=O)[nH]c1=O
5 | 0.8 | Cc1cn([C@H]2C[C@H](OP(=O)(O)OC[C@H]3O[C@@H](n4cnc5c(=O)nc(N)[nH]c54)C[C@@H]3OP(=O)(O)OC[C@H]3O[C@@H](n4cnc5c(=O)[nH]c(=N)[nH]c54)C[C@@H]3OP(=O)(O)OC[C@H]3O[C@@H](n4cc(C)c(=O)[nH]c4=O)C[C@@H]3OP(=O)(O)OC[C@H]3O[C@@H](n4cnc5c(=O)nc(N)[nH]c54)C[C@@H]3OP(=O)(O)OC[C@H]3O[C@@H](n4cc(C)c(=O)[nH]c4=O)C[C@@H]3OP(=O)(O)OC[C@H]3O[C@@H](n4cnc5c(=O)nc(N)[nH]c54)C[C@@H]3OP(=O)(O)OC[C@H]3O[C@@H](n4cnc5c(=O)[nH]c(=N)[nH]c54)C[C@@H]3OP(=O)(O)OC[C@H]3O[C@@H](n4cc(C)c(=O)[nH]c4=O)C[C@@H]3OP(=O)(O)OC[C@H]3O[C@@H](n4cc(C)c(=O)[nH]c4=O)C[C@@H]3OP(=O)(O)OC[C@H]3O[C@@H](n4cnc5c(=O)[nH]c(=N)[nH]c54)C[C@@H]3OCOC[C@H]3O[C@@H](n4cnc5c(=O)nc(N)[nH]c54)C[C@@H]3O)[C@@H](COP(=O)(O)O[C@H]3C[C@H](n4cc(C)c(=O)[nH]c4=O)O[C@@H]3COP(=O)(O)O[C@H]3C[C@H](n4cnc5c(=O)[nH]c(=N)[nH]c54)O[C@@H]3COP(=O)(O)O[C@H]3C[C@H](n4cnc5c(=O)nc(N)[nH]c54)O[C@@H]3COP(=O)(O)O)O2)c(=O)[nH]c1=O
